Measurements reported in PubChem BioAssay (NCI).
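Each compound was tested at five concentrations against cells in 96-well plates for 48 hours. GI50 marks 50% less growth. The concentration for full growth arrest is given as TGI.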

Key:
Assay in all cases: inhibition of tumour cell growth, NCI panel, 48 h
786-0 renal = tested on: 786-0 renal
HCT-116 colon = tested on: HCT-116 colon
MOLT-4 leukemia = tested on: MOLT-4 leukemia
SW-620 colon = tested on: SW-620 colon
HT29 colon = tested on: HT29 colon
U251 CNS = tested on: U251 CNS
HCT-15 colon = tested on: HCT-15 colon
OVCAR-5 ovarian = tested on: OVCAR-5 ovarian
MALME-3M melanoma = tested on: MALME-3M melanoma
SR leukemia = tested on: SR leukemia

SMILES | TGI (786-0 renal) [µM] | TGI (HCT-116 colon) [µM] | TGI (MOLT-4 leukemia) [µM] | TGI (SW-620 colon) [µM] | TGI (HT29 colon) [µM] | TGI (U251 CNS) [µM] | TGI (HCT-15 colon) [µM] | TGI (OVCAR-5 ovarian) [µM] | TGI (MALME-3M melanoma) [µM] | GI50 (786-0 renal) [nM] | GI50 (MOLT-4 leukemia) [nM] | GI50 (SW-620 colon) [µM] | GI50 (HT29 colon) [µM] | GI50 (U251 CNS) [µM] | GI50 (HCT-15 colon) [nM] | GI50 (OVCAR-5 ovarian) [µM] | GI50 (MALME-3M melanoma) [nM] | GI50 (SR leukemia) [nM] | TGI (SR leukemia) [µM] | GI50 (HCT-116 colon) [µM]
COc1cc([C@@H]2c3cc4c(cc3[C@@H](NC(=O)c3ccccc3)C3COC(=O)[C@@H]32)OCO4)cc(OC)c1O (some centres undefined) | 21.9 | 28.8 | 9.18 | > 100 | 22 | 13.5 | > 100 | > 100 | 26.6 |  |  |  |  |  |  |  |  |  |  | 
CC(=O)Oc1ccc(O)c(O)c1C/C=C(\C)CC/C=C(\C)CC/C=C(\C)CCC=C(C)C | 2.83 |  |  | 1.21 | 1.18 | 1.28 |  | 1.89 | 0.782 |  |  |  |  |  |  |  |  |  |  | 
Clc1nc(Cl)c2ncn(Cc3ccc(COc4cccc(OCc5ccc(Cn6cnc7c(Cl)nc(Cl)nc76)cc5)c4)cc3)c2n1 | > 100 |  | > 100 | > 100 | > 100 | > 100 | > 100 | > 100 | > 100 | 36200 | 8600 | > 100 | > 100 | 19.8 | 28800 | 49.8 | 73100 |  |  | 
CCOP(=O)(OCC)C(NC(c1ccccc1)c1ccccc1)c1cccc2ccccc12 (centres undefined) | 9.64 |  | > 100 | 57.6 |  |  | 8.78 | 34.4 |  | 2900 | 4170 | 22.2 |  |  | 1510 | 14.3 |  | 4910 | > 100 | 
COc1cc(/C=C/C(=O)c2sc(Nc3ccccc3)nc2C)ccc1O | > 100 |  | > 100 | > 100 | > 100 | > 100 | > 100 | > 100 | > 100 |  |  |  |  |  |  |  |  |  |  | 
N#C/C(=C\c1cccc(O)c1)C(N)=O | > 100 | > 100 | > 100 | > 100 | > 100 | > 100 | > 100 | > 100 | > 100 |  |  |  |  |  |  |  |  |  |  | 
CCCCCCCCCCCCCC(=O)CBr | 11.3 | 17 | 2.9 | 30.2 | 30.5 | 28.8 | 28.3 | 49.8 | 23.6 |  |  |  |  |  |  |  |  |  |  | 
CC(=O)OCC1OC(n2ccc(=O)[nH]c2=O)C(OC(C)=O)C1OC(C)=O (centres undefined) | > 100 | > 100 |  | > 100 | > 100 | > 100 | > 100 | > 100 | > 100 | > 100000 |  | > 100 | > 100 | > 100 | > 100000 | > 100 | > 100000 |  |  | > 100
COc1ccc(-c2cncn2-c2ccc(OC)cc2)cc1 | 49.1 | 44 |  | > 100 |  | > 100 | > 100 | 82.7 |  | 21900 |  | 26.1 |  | 25.3 | 19600 | 25.2 |  |  |  | 20.5
CC(=O)c1cc([N+](=O)[O-])ccc1OCC(=O)O | > 100 | > 100 | > 100 | > 100 | > 100 | > 100 | > 100 | > 100 | > 100 |  |  |  |  |  |  |  |  |  |  | 
CC/C=C\C/C=C\C/C=C\CCCCCCCC(=O)OCC | > 100 | > 100 | > 100 | > 100 | > 100 | > 100 |  | > 100 | > 100 |  |  |  |  |  |  |  |  |  | > 100 | 
CC1=C(O)C(=O)C2C(=O)C1C(C)C2c1ccc(Cl)cc1 (centres undefined) | > 100 |  | > 100 | > 100 | > 100 | > 100 | > 100 | > 100 | > 100 |  |  |  |  |  |  |  |  |  | > 100 | 
O=C(O)c1cc(=O)c2[nH]c3ccccc3c2s1 | > 100 |  | > 100 | > 100 |  |  | > 100 | > 100 | > 100 |  |  |  |  |  |  |  |  |  |  | 
O=C(CSC(=S)N1CCOCC1)Nc1nc2c(s1)CCCC2 | > 100 | > 100 | > 100 |  | > 100 | > 100 | > 100 | > 100 | > 100 |  |  |  |  |  |  |  |  |  | > 100 | 
COc1cc(CNc2ccc(C(C)C)cc2)cc(OC)c1OC | 30.2 | 23.6 | 73 |  | 33.3 | 29.7 | 31.2 | 69.9 | 45.6 |  |  |  |  |  |  |  |  |  |  | 
c1cnc2[nH]cc(-c3csc(-c4cn(CCCCN5CCOCC5)c5ccccc45)n3)c2c1 | 3.33 | 3.05 | 3.67 | 3.54 |  |  | 3.51 | 3.45 | 2.96 | 1850 | 1820 | 1.77 |  |  | 1810 | 1.82 | 1320 |  |  | 1.65
Clc1nc(Cl)c2c(ncn2C/C=C\Cn2cnc3c(Cl)nc(Cl)nc32)n1 | 10.5 |  | 3.25 | 2.12 | 2.73 | 3.91 | 3.2 | 3.74 | 4.2 | 2930 | 1420 | 0.776 | 1.4 | 1.85 | 1500 | 1.96 | 2220 | 218 | 0.813 | 
COc1ccc(O)c(C#N)c1C#N | > 100 | > 100 | > 100 | > 100 | > 100 | > 100 | > 100 | > 100 | > 100 |  |  |  |  |  |  |  |  |  |  | 
CCC(CC)n1c(C)nc2c1C(=O)c1ccccc1C2=O | > 100 | 77.4 | > 100 | > 100 | > 100 | > 100 | > 100 |  | 73.6 |  |  |  |  |  |  |  |  |  | > 100 | 
CSc1nc2c(nc(N)n2C2OCC(O)C(O)C2O)c(=O)n1C (centres undefined) | > 100 | > 100 | > 100 | > 100 | > 100 | > 100 |  |  | > 100 |  |  |  |  |  |  |  |  |  | > 100 | 
Cc1ccc(NC(=O)/C(=N\Nc2ccc([N+](=O)[O-])cc2[N+](=O)[O-])C2C(=O)NC(=O)NC2=O)cc1 | > 100 | > 100 |  | > 100 | > 100 | > 100 | > 100 | > 100 | > 100 |  |  |  |  |  |  |  |  |  | > 100 | 
